PubChem BioAssay AID328 (DTP/NCI, 2004)
Where “and” joins values, the source holds several entries; their conditions need not be identical. Equal values may be shown once. Inconclusive results and toxic doses are left out.

Test system: BDF1 mice, P388 leukemia ip, median survival T/C
Experiment: NCI In Vivo Anticancer Drug Screen. Data for tumor model P388 Leukemia (intraperitoneal) in B6D2F1 (BDF1) mice
Conditions: endpoint: median survival time, higher = longer survival
Outline: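 Antitumour effect was judged in vivo: survival in drug-treated mice, normalised to that of vehicle-dosed controls, gives the reported T/C.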

[1] = dose: 50.0 mg/kg/injection, schedule: Q01DX009 (ip), vehicle: saline with Tween-80
[2] = dose: 100.0 mg/kg/injection, schedule: Q01DX009 (ip), vehicle: saline with Tween-80
[3] = dose: 100.0 mg/kg/injection, schedule: Q04DX003 (ip), vehicle: saline with Tween-80
[4] = dose: 200.0 mg/kg/injection, schedule: Q01DX009 (ip), vehicle: saline with Tween-80
[5] = dose: 200.0 mg/kg/injection, schedule: Q04DX003 (ip), vehicle: saline with Tween-80
[6] = dose: 400.0 mg/kg/injection, schedule: Q04DX003 (ip), vehicle: saline with Tween-80
[7] = dose: 25.0 mg/kg/injection, schedule: Q01DX009 (ip), vehicle: saline with Tween-80
[8] = dose: 50.0 mg/kg/injection, schedule: Q01DX009 (ip), vehicle: water
[9] = dose: 100.0 mg/kg/injection, schedule: Q01DX009 (ip), vehicle: water
[10] = dose: 200.0 mg/kg/injection, schedule: Q01DX009 (ip), vehicle: water
[11] = dose: 12.5 mg/kg/injection, schedule: Q01DX009 (ip), vehicle: saline with Tween-80
[12] = dose: 12.5 mg/kg/injection, schedule: Q01DX009 (ip), vehicle: water
[13] = dose: 25.0 mg/kg/injection, schedule: Q01DX009 (ip), vehicle: saline
[14] = dose: 25.0 mg/kg/injection, schedule: Q01DX009 (ip), vehicle: water
[15] = dose: 25.0 mg/kg/injection, schedule: Q04DX003 (ip), vehicle: water
[16] = dose: 50.0 mg/kg/injection, schedule: Q04DX003 (ip), vehicle: water
[17] = dose: 100.0 mg/kg/injection, schedule: Q01DX009 (ip), vehicle: saline
[18] = dose: 100.0 mg/kg/injection, schedule: Q04DX003 (ip), vehicle: water
[19] = dose: 200.0 mg/kg/injection, schedule: Q04DX003 (ip), vehicle: water
[20] = dose: 400.0 mg/kg/injection, schedule: Q01DX009 (ip), vehicle: saline
[21] = dose: 400.0 mg/kg/injection, schedule: Q04DX003 (ip), vehicle: water
[22] = dose: 50.0 mg/kg/injection, schedule: Q04DX003 (ip), vehicle: Klucel (hydroxypropylcellulose) (HPC)
[23] = dose: 100.0 mg/kg/injection, schedule: Q04DX003 (ip), vehicle: Klucel (hydroxypropylcellulose) (HPC)
[24] = dose: 200.0 mg/kg/injection, schedule: Q04DX003 (ip), vehicle: Klucel (hydroxypropylcellulose) (HPC)
[25] = dose: 100.0 mg/kg/injection, schedule: Q04DX003 (ip), vehicle: other
[26] = dose: 200.0 mg/kg/injection, schedule: Q04DX003 (ip), vehicle: other
[27] = dose: 400.0 mg/kg/injection, schedule: Q04DX003 (ip), vehicle: other
[28] = dose: 100.0 mg/kg/injection, schedule: Q04DX003 (ip), vehicle: saline sonified
[29] = dose: 200.0 mg/kg/injection, schedule: Q04DX003 (ip), vehicle: saline sonified
[30] = dose: 400.0 mg/kg/injection, schedule: Q04DX003 (ip), vehicle: saline sonified
[31] = dose: 1.56 mg/kg/injection, schedule: Q01DX009 (ip), vehicle: saline with Tween-80
[32] = dose: 6.25 mg/kg/injection, schedule: Q01DX009 (ip), vehicle: saline with Tween-80
[33] = dose: 200.0 mg/kg/injection, schedule: Q01DX009 (ip), vehicle: saline

C[n+]1c(/C=C/c2ccc(O)c3ncccc23)[se]c2ccccc21
T/C (dose: 0.25 mg/kg/injection, schedule: Q01DX010 (ip), vehicle: saline): 104 % of control
T/C (dose: 0.5 mg/kg/injection, schedule: Q01DX010 (ip), vehicle: saline): 118 % of control
T/C (dose: 1.0 mg/kg/injection, schedule: Q01DX010 (ip), vehicle: saline): 104 % of control
T/C (dose: 1.5 mg/kg/injection, schedule: Q01DX010 (ip), vehicle: acetone): 165 % of control
T/C (dose: 3.0 mg/kg/injection, schedule: Q01DX010 (ip), vehicle: acetone): 165 % of control
T/C (dose: 3.0 mg/kg/injection, schedule: Q01DX010 (ip), vehicle: saline): 122 % of control
T/C (dose: 6.0 mg/kg/injection, schedule: Q01DX010 (ip), vehicle: acetone): 185 % of control
T/C (dose: 25.0 mg/kg/injection, schedule: Q01DX010 (ip), vehicle: saline): 118 % of control

CCSC(=O)CC
T/C [1]: 95 % of control
T/C [2]: 105 % of control
T/C [3]: 104 % of control
T/C [4]: 100 % of control
T/C [5]: 104 % of control
T/C [6]: 100 % of control

COc1ccc(CNCCNCCNCc2ccc(OC)cc2)cc1
T/C [7]: 87 % of control
T/C [1]: 105 % of control
T/C [2]: 101 % of control and 105 % of control
T/C [3]: 122 % of control
T/C [4]: 93 % of control
T/C [5]: 111 % of control
T/C (dose: 400.0 mg/kg/injection, schedule: Q01DX009 (ip), vehicle: saline with Tween-80): 101 % of control
T/C [6]: 122 % of control

O=C1NC(c2cccc3ccccc23)Nc2ccccc21 (centres undefined)
T/C [8]: 169 % of control
T/C [9]: 200 % of control
T/C [10]: 104 % of control

c1ccc(C2=C([P+](c3ccccc3)(c3ccccc3)c3ccccc3)CCN2)cc1
T/C [11]: 100 % of control

Clc1ccc(CNc2ncnc3[nH]ncc23)cc1Cl
T/C [11]: 100 % of control
T/C [7]: 100 % of control
T/C [1]: 100 % of control

C=CCCC(=O)OC(C)(C)C
T/C [12]: 103 % of control
T/C [13]: 109 % of control
T/C [14]: 100 % of control
T/C [15]: 106 % of control
T/C [8]: 100 % of control
T/C [16]: 116 % of control
T/C [17]: 109 % of control
T/C [18]: 114 % of control
T/C [19]: 98 % of control
T/C [20]: 100 % of control
T/C [21]: 114 % of control

CC1(O)c2cccc3c2C2(O)c4c1cccc4C(C)(O)c1cccc(c12)C3(C)O (centres undefined)
T/C [22]: 100 % of control
T/C [23]: 105 % of control
T/C [24]: 105 % of control

COc1c2occc2c(CC(O)C(C)(C)O)c2ccc(=O)oc12 (centres undefined)
T/C (dose: 43.8 mg/kg/injection, schedule: Q01DX009 (ip), vehicle: Klucel (hydroxypropylcellulose) (HPC)): 103 % of control
T/C (dose: 87.5 mg/kg/injection, schedule: Q01DX009 (ip), vehicle: Klucel (hydroxypropylcellulose) (HPC)): 92 % of control
T/C (dose: 175.0 mg/kg/injection, schedule: Q01DX009 (ip), vehicle: Klucel (hydroxypropylcellulose) (HPC)): 90 % of control

CCCCN(C)/N=N/c1[nH]ncc1C(=O)OCC
T/C [25]: 116 % of control
T/C [26]: 108 % of control
T/C [27]: 100 % of control

Cc1ncc([N+](=O)[O-])n1CCSC(N)=O
T/C [3]: 120 % of control
T/C [5]: 160 % of control

COc1cc2c3c(c1)C(=O)CCN3CCC2
T/C [22]: 95 % of control
T/C [23]: 95 % of control
T/C [24]: 87 % of control

CCOC(=O)NCNC(=O)OCC
T/C [28]: 100 % of control
T/C [29]: 108 % of control
T/C [30]: 108 % of control

CCCCCCCCCCCCCCCC(=O)N(C/C=C/CN(CCCN(C)C)C(=O)CCCCCCCCCCCCCCC)CCCN(C)C
T/C [31]: 95 % of control
T/C (dose: 3.13 mg/kg/injection, schedule: Q01DX009 (ip), vehicle: saline with Tween-80): 100 % of control
T/C [32]: 113 % of control
T/C [11]: 95 % of control and 100 % of control

CC1(C)CN(Cc2ccccc2)C(C)(C)CN1
T/C (dose: 0.78 mg/kg/injection, schedule: Q01DX009 (ip), vehicle: saline with Tween-80): 89 % of control
T/C [31]: 97 % of control
T/C (dose: 3.12 mg/kg/injection, schedule: Q01DX009 (ip), vehicle: saline with Tween-80): 95 % of control
T/C (dose: 3.12 mg/kg/injection, schedule: Q04DX003 (ip), vehicle: saline with Tween-80): 114 % of control
T/C [32]: 91 % of control
T/C (dose: 6.25 mg/kg/injection, schedule: Q04DX003 (ip), vehicle: saline with Tween-80): 108 % of control
T/C (dose: 12.5 mg/kg/injection, schedule: Q04DX003 (ip), vehicle: saline with Tween-80): 96 % of control
T/C (dose: 25.0 mg/kg/injection, schedule: Q04DX003 (ip), vehicle: saline with Tween-80): 89 % of control

COc1ccc(C2C=C(c3ccc4c(c3)OCO4)Oc3c2c(=O)oc2ccccc32)cc1OC (centres undefined)
T/C [12]: 99 % of control
T/C [14]: 94 % of control
T/C [15]: 94 % of control
T/C [8]: 94 % of control
T/C [16]: 101 % of control
T/C [9]: 99 % of control
T/C [18]: 97 % of control
T/C [10]: 94 % of control
T/C [19]: 110 % of control
T/C [21]: 106 % of control

CC(N)C(=O)NCC(=O)NCC(=O)O (centres undefined)
T/C [17]: 95 % of control
T/C (dose: 100.0 mg/kg/injection, schedule: Q04DX003 (ip), vehicle: saline): 104 % of control
T/C [33]: 104 % of control
T/C (dose: 200.0 mg/kg/injection, schedule: Q04DX003 (ip), vehicle: saline): 95 % of control
T/C [20]: 100 % of control
T/C (dose: 400.0 mg/kg/injection, schedule: Q04DX003 (ip), vehicle: saline): 95 % of control

COC1=C2CCCCC2=[N+]2CCc3ccccc3C2C1 (centres undefined)
T/C (dose: 25.0 mg/kg/injection, schedule: Q01DX001 (ip), vehicle: saline sonified): 100 % of control
T/C (dose: 50.0 mg/kg/injection, schedule: Q01DX001 (ip), vehicle: saline sonified): 95 % of control
T/C (dose: 100.0 mg/kg/injection, schedule: Q01DX001 (ip), vehicle: saline sonified): 95 % of control

NCCNCC[OH2+].NCCNCC[OH2+].[Cu+2].[O-][Cl+3]([O-])([O-])[O-]
T/C (dose: 12.5 mg/kg/injection, schedule: Q01DX009 (ip), vehicle: saline): 100 % of control
T/C [13]: 105 % of control

COc1cccc(N)c1N
T/C (dose: 50.0 mg/kg/injection, schedule: Q01DX009 (ip), vehicle: suspension in saline): 124 % of control
T/C (dose: 200.0 mg/kg/injection, schedule: Q01DX009 (ip), vehicle: suspension in saline): 98 % of control

CC(O)C(F)(F)C(F)(F)C(F)(F)C(C)O (centres undefined)
T/C (dose: 50.0 mg/kg/injection, schedule: Q01DX009 (ip), vehicle: saline): 90 % of control
T/C [17]: 104 % of control
T/C [28]: 116 % of control
T/C [33]: 104 % of control
T/C [29]: 94 % of control
T/C [30]: 116 % of control

CCOC(=O)c1cc(CC)sc1N
T/C [3]: 95 % of control
T/C [5]: 108 % of control
T/C [6]: 108 % of control

O=C1/C(=C/c2ccco2)CCC2CC3(CCC12)OCCO3 (centres undefined)
T/C [25]: 108 % of control
T/C [26]: 91 % of control
T/C [27]: 108 % of control
